In patent US12037583B2, “Compositions and methods for immunooncology” (Novartis AG, priority 2015, dated 2024):

The substances below were run on PDCD1 (assay: NGS editing of PDCD1 by dgRNA in HEK cells stably expressing Cas9). Conditions: at least 3 experiments.
Format: cell-based, human
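Throughout, for HEK (NGS) % Editing Mean: dgRNA lipofected into Cas9-expressing HEK cells, lysed after 24 h, target amplicon sequenced, editing = reads carrying insertions or deletions as percent of all reads including wild type.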
Description: Transfection of Cas9GFP-expressing HEK293 cells (HEK-293_Cas9GFP) was used for primary screening of target specific crRNAs. […] Selected crRNAs were chemically synthesized and delivered in a 96 well format. HEK-293-Cas9GFP cells were transfected with target crRNAs comprising a flagpole region of SEQ ID NO: 6607 in a 1:1 ratio with stock trRNA of SEQ ID NO: 6660. The transfection was mediated using lipofection technology according to manufacturer's protocol (DharmaFECT Duo, GE LifeSciences; or RNAiMax, LifeTechnologies). Transfected cells were lysed 24 h following lipofection and editing (e.g., cleavage) was detected within lysates with the T7E1 assay and/or next generation sequencing (NGS; below).
PCR primers were first designed around the target site, and the genomic area of interest PCR amplified. Additional PCR was performed according to manufacturer's protocols (Illumina) to add the necessary chemistry for sequencing. The amplicons were then sequenced on an Illumina MiSeq instrument. The reads were then aligned to the human reference genome (e.g., hg38) after eliminating those having low quality scores. From the resulting files containing the reads mapped to the reference genome (BAM files), reads which overlap the target region of interest were selected and the number of wild type reads versus the number of reads which contain an insertion or deletion was calculated. The editing percentage was then defined as the total number of reads with insertions or deletions over the total number of reads, including wild type. To determine the pattern of insertions and/or deletions that resulted from the edit, the aligned reads with indels were selected and the number of a reads with a given indel were summed.
Editing of CRISPR systems containing dgRNA molecules comprising targeting domains to sequences of PDCD1 were tested for editing in HEK (gRNA delivered to cells stably expressing Cas9) and CD3+ T cells (gRNA and Cas9 delivered as RNP) according to the methods described herein.
All mean editing % are as measured by NGS and are based on at least 3 experiments.

| Substance | HEK (NGS) % Editing Mean [%] |
| --- | --- |
| CR000824: dgRNA targeting domain to PDCD1 (guide UCAGGCGGAGGUGAGCGGAA; targeting domain within dual guide RNA, chemistry not given here, further chemistry not given here; listed as Homo sapiens) | 54 |
| CR000825: dgRNA targeting domain to PDCD1 (guide CUCAGGCGGAGGUGAGCGGA; targeting domain within dual guide RNA, chemistry not given here, further chemistry not given here; listed as Homo sapiens) | 46 |
| CR000826: dgRNA targeting domain to PDCD1 (guide ACUGCUCAGGCGGAGGUGAG; targeting domain within dual guide RNA, chemistry not given here, further chemistry not given here; listed as Homo sapiens) | 70 |
| CR000827: dgRNA targeting domain to PDCD1 (guide GCUCACCUCCGCCUGAGCAG; targeting domain within dual guide RNA, chemistry not given here, further chemistry not given here; listed as Homo sapiens) | 39 |
| CR000828: dgRNA targeting domain to PDCD1 (guide CUUCUCCACUGCUCAGGCGG; targeting domain within dual guide RNA, chemistry not given here, further chemistry not given here; listed as Homo sapiens) | 69 |
| CR000829: dgRNA targeting domain to PDCD1 (guide CAGUGGAGAAGGCGGCACUC; targeting domain within dual guide RNA, chemistry not given here, further chemistry not given here; listed as Homo sapiens) | 68 |
| CR000830: dgRNA targeting domain to PDCD1 (guide UGGAGAAGGCGGCACUCUGG; targeting domain within dual guide RNA, chemistry not given here, further chemistry not given here; listed as Homo sapiens) | 57 |
| CR000831: dgRNA targeting domain to PDCD1 (guide GGAGAAGGCGGCACUCUGGU; targeting domain within dual guide RNA, chemistry not given here, further chemistry not given here; listed as Homo sapiens) | 66 |
| CR000832: dgRNA targeting domain to PDCD1 (guide GAGAAGGCGGCACUCUGGUG; targeting domain within dual guide RNA, chemistry not given here, further chemistry not given here; listed as Homo sapiens) | 49 |
| CR000833: dgRNA targeting domain to PDCD1 (guide AGGCGCCCUGGCCAGUCGUC; targeting domain within dual guide RNA, chemistry not given here, further chemistry not given here; listed as Homo sapiens) | 34 |

These substances were tested on CIITA (assay: NGS editing and frameshift edit of CIITA by dgRNA in HEK293 cells expressing Cas9). Conditions: HEK293 cells stably expressing Cas9, dgRNA to CIITA, N = 3.
Format: cell-based, human
Protocol: Editing of CIITA with dgRNAs targeted to the CIITA gene were assayed in HEK293 cells engineered to express Cas9, as described above in Example 1.

| Substance | Avg. % Edit [%] |
| --- | --- |
| CR003025 (guide GUGACUGGCAGUCUCCUAGU; targeting domain within dual guide RNA, chemistry not given here, further chemistry not given here; listed as Homo sapiens) | 24.52 |
| CR003026 (guide AGUCGCUCACUGGUCCCACU; targeting domain within dual guide RNA, chemistry not given here, further chemistry not given here; listed as Homo sapiens) | 29.63 |

Same assay, conditions: frameshift edit, HEK293 cells stably expressing Cas9, dgRNA to CIITA

| Substance | Avg. % FS [%] |
| --- | --- |
| CR003025 (guide GUGACUGGCAGUCUCCUAGU; targeting domain within dual guide RNA, chemistry not given here, further chemistry not given here; listed as Homo sapiens) | 19.21 |
| CR003026 (guide AGUCGCUCACUGGUCCCACU; targeting domain within dual guide RNA, chemistry not given here, further chemistry not given here; listed as Homo sapiens) | 20.05 |
